These are literature values, as cited in patent US9481672B2 (priority 2012, dated 2016).

The subject of the series is chymase. The following applies: hamsters, myocardial infarction model.

Turning to `CCOc1ccccc1CC1C(=O)N(C(=O)NC(c2ccc(C)cc2)c2ccc(C)cc2)C1Oc1ccc(C(=O)O)cc1` (stereo not drawn) [BCEAB], the chymase activity entry is “reduced”, the haemodynamics result is listed as “improved” and the mortality entry was “reduced”.
